Target: Elastase (Pseudomonas aeruginosa (strain ATCC 15692 / PAO1 / 1C / PRS 101 / LMG12228), UniProt P14756)
Assay: Inhibition of Pseudomonas aeruginosa LasB by fluorimetric assay in buffer of pH 7.2
Conditions: not given; call rule not given here

Chain of Elastase (P14756 whole entry): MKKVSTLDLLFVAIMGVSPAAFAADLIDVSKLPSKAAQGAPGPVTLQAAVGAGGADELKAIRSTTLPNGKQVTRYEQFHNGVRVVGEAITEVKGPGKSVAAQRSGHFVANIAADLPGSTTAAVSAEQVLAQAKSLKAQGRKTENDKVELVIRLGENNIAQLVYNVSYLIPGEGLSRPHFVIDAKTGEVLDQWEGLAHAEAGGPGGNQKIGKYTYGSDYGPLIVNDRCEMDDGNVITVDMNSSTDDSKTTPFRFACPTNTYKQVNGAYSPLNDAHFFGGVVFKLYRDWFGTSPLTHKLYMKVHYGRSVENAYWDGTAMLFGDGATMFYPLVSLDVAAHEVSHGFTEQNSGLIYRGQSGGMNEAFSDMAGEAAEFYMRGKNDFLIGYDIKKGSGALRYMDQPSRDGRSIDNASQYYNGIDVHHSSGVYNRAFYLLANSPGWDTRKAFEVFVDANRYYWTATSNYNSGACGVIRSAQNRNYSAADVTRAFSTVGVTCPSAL

Ki | Structure (SMILES)
Not Active | CC(C)C[C@H](NC(=O)[C@H](CCC(=O)O)NC(=O)CS)C(N)=O
Not Active | C[C@@H](O)[C@H](NC(=O)CS)C(=O)N[C@@H](CCCCN)C(N)=O
Not Active | CSCC[C@H](NC(=O)CS)C(=O)N[C@@H](CC(C)C)C(N)=O
Not Active | CC(C)C[C@H](NC(=O)[C@H](CS)NC(=O)CS)C(N)=O
Not Active | CC(C)[C@H](NC(=O)CS)C(=O)N[C@@H](Cc1c[nH]c2ccccc12)C(N)=O
Not Active | NC(=O)[C@H](CC(=O)O)NC(=O)[C@@H]1CCCN1C(=O)CS
Not Active | CC(C)[C@H](NC(=O)CS)C(=O)N[C@@H](CC(=O)O)C(N)=O
Not Active | NC(=O)[C@H](Cc1ccccc1)NC(=O)[C@@H]1CCCN1C(=O)CS
Not Active | C[C@H](NC(=O)CS)C(=O)N[C@@H](Cc1ccccc1)C(N)=O
Not Active | N=C(N)NCCC[C@H](NC(=O)[C@H](CCCCN)NC(=O)CS)C(N)=O
Not Active | N=C(N)NCCC[C@H](NC(=O)[C@H](Cc1c[nH]cn1)NC(=O)CS)C(N)=O
Not Active | NC(=O)[C@H](Cc1ccccc1)NC(=O)[C@H](CC(=O)O)NC(=O)CS
Not Active | NC(=O)[C@H](CC(=O)O)NC(=O)CNC(=O)CS

Same assay, conditions: read-out: Ki

Structure (SMILES) | Ki [µM]
CC(C)C[C@H](NC(=O)[C@H](CO)NC(=O)CS)C(N)=O | 510
CC(C)C[C@H](NC(=O)[C@H](Cc1ccccc1)NC(=O)CS)C(N)=O | 645
NC(=O)[C@H](Cc1c[nH]c2ccccc12)NC(=O)[C@H](CCC(=O)O)NC(=O)CS | 704
CC(C)C[C@H](NC(=O)[C@H](C)NC(=O)CS)C(N)=O | 21
NC(=O)[C@H](Cc1c[nH]c2ccccc12)NC(=O)[C@H](CC(=O)O)NC(=O)CS | 207
CC(C)[C@H](NC(=O)[C@H](CO)NC(=O)CS)C(N)=O | 229
CC(C)[C@H](NC(=O)[C@H](Cc1c[nH]c2ccccc12)NC(=O)CS)C(N)=O | 4.1
CC(C)C[C@H](NC(=O)CS)C(=O)N[C@@H](Cc1ccccc1)C(N)=O | 113
CC(C)C[C@H](NC(=O)[C@H](Cc1c[nH]c2ccccc12)NC(=O)CS)C(N)=O | 3.7
NCCCC[C@H](NC(=O)[C@H](CS)NC(=O)CS)C(N)=O | 274
CC(C)C[C@H](NC(=O)[C@H](Cc1ccc(O)cc1)NC(=O)CS)C(N)=O | 33
C[C@@H](O)[C@H](NC(=O)CS)C(=O)N[C@@H](Cc1c[nH]c2ccccc12)C(N)=O | 65
CC(C)[C@H](NC(=O)[C@H](CC(N)=O)NC(=O)CS)C(N)=O | 180
NC(=O)[C@H](Cc1ccccc1)NC(=O)[C@H](CS)NC(=O)CS | 131
NCCCC[C@H](NC(=O)[C@H](Cc1c[nH]c2ccccc12)NC(=O)CS)C(N)=O | 10
NC(=O)[C@H](Cc1ccccc1)NC(=O)[C@H](CCC(=O)O)NC(=O)CS | 146
NCCCC[C@H](NC(=O)[C@H](Cc1ccccc1)NC(=O)CS)C(N)=O | 76
CC[C@@H](C)[C@H](NC(=O)CS)C(=O)N[C@@H](CC(C)C)C(N)=O | 1.3
NC(=O)[C@H](CCCN=C(N)N)NC(=O)CNC(=O)CS | 641
NCCCC[C@H](NC(=O)[C@H](CCC(N)=O)NC(=O)CS)C(N)=O | 380
CC(C)C[C@H](NC(=O)[C@H](CCCCN)NC(=O)CS)C(N)=O | 123
NCCCC[C@H](NC(=O)CS)C(=O)N[C@@H](Cc1ccccc1)C(N)=O | 126
C[C@H](NC(=O)CS)C(=O)N[C@@H](CCCNC(=N)N)C(N)=O | 115
NC(=O)C[C@H](NC(=O)CS)C(=O)N[C@@H](Cc1ccccc1)C(N)=O | 37
CC(C)[C@H](NC(=O)[C@H](Cc1c[nH]cn1)NC(=O)CS)C(N)=O | 47
CC(C)[C@H](NC(=O)[C@H](CCC(=O)O)NC(=O)CS)C(N)=O | 730

— ChEMBL document CHEMBL1154297, “Inhibitor profiling of the Pseudomonas aeruginosa virulence factor LasB using N-alpha mercaptoamide template-based inhibitors” (Bioorg Med Chem Lett, 2009)
